According to PMC7481482, “Development of Anthraquinone Derivatives as Ectonucleoside Triphosphate Diphosphohydrolase (NTPDase) Inhibitors With Selectivity for NTPDase2 and NTPDase3” (Frontiers in Pharmacology, 2020):

What was measured:
human NTPDase1 = biological target: T1, human NTPDase1 (Homo sapiens, UniProt P49961); assay: Malachite green assay, human NTPDase1; format: biochemical; details: 2 μM compound; 50 µM ATP; COS-7 membrane preparation; read-out: % inhibition at 2 μM concentration, NTPDase1
T1 construct: expressed in transfected cells; host or cells: COS-7 cells (membrane preparation)
T1 sequence (P49961 1-510): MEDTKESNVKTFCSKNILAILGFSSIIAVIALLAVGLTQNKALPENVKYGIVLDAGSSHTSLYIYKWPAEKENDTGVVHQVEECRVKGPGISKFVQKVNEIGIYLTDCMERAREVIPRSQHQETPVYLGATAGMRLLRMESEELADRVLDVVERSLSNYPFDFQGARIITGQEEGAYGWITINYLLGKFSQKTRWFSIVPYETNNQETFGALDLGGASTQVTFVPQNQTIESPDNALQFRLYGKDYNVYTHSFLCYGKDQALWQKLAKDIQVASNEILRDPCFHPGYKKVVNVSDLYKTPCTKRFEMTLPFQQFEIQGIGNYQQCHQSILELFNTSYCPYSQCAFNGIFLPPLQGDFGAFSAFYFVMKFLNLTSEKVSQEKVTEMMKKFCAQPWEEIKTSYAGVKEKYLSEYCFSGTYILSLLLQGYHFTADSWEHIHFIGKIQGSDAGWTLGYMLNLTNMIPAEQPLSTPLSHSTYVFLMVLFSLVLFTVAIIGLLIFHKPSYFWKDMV
Protocol: (§1) Membrane preparations expressing human NTPDase1, -2, -3, or -8, respectively, were obtained as previously described ([Sévigny et al., 1997]; [Cogan et al., 1999]; [Kukulski et al., 2005]; [Lecka et al., 2013]; [Lee et al., 2018]). Enzyme inhibition assays were performed using the malachite green assay in analogy to published procedures with some modifications ([Dou et al., 2018]). The reaction buffer contained 10 mM HEPES, 2 mM CaCl2, and 1 mM MgCl2 (pH 7.4) in a final volume of 50 μL in transparent 96-well half-area plates. The compounds were initially tested at a final concentration of 2 µM using a COS-7-cell membrane preparation expressing the appropriate NTPDase isoenzyme (protein amount: 143 ng for NTPDase1, 175 ng for NTPDase2, 152 ng for NTPDase3, and 175 ng for NTPDase8). Preincubated of the enzyme preparations was perfomred at 37°C in the presence or absence of test compounds with gentle shaking (Eppendorf Thermomixer comfort at 500 rpm) for 5 min. […] ([Kukulski et al., 2005]). After 15 min of incubation at 37°C with gentle shaking, the reaction was stopped by the addition of the detection reagents (20 µL malachite green solution, 0.6 mM, and 30 µL of ammonium molybdate solution, 20 mM, in 1.5 M sulfuric acid). The released inorganic phosphate was quantified after 20 min of gentle shaking at 25°C by measuring the absorption of the malachite green-phosphomolybdate complex at 600 nm using a BMG PheraStar FS plate reader (BMG Labtech GmbH, Ortenberg, Germany). The corrected absorption was calculated by subtracting the absorption of the negative control samples, which were incubated with previously denatured enzyme (90°C, 15 min). Full concentration-inhibition curves were determined with inhibitor concentrations ranging from 0.03 to 30 µM in the presence of 2% DMSO. Inhibition-type experiments were performed with 25, 50, 100, 150 and 200 µM ATP as substrate for NTPDase2 in the presence of inhibitor 20 (0, 0.25, 0.5, and 1 µM) and 25, 50, 100 and 150 µM ATP substrate for NTPDase3 and compound 42 (0.25, 0.5, and 1 µM). For all of the presented data, at least three independent experiments were performed, and IC50 values were calculated by GraphPad Prism 8 software.
(§2) Inhibition of human NTPDases was performed using the malachite green assay, which was established on a robotic system (Z’ factors > 0.70) ([Baykov et al., 1988]; [Fiene et al., 2015]). The malachite green assay enables the detection of the phosphate produced by the enzymatic hydrolysis of nucleotides. A fixed substrate concentration of 50 µM ATP for NTPDase1 and 100 µM for NTPDase2, -3, and -8 was employed. Test compounds were initially screened at a concentration of 2 μM. […] A total of 48 synthesized anthraquinone derivatives including 14 new compounds not previously described in the literature were evaluated for their inhibitory activity at human NTPDase1, -2, -3, and -8 (for results see Table 1).

human NTPDase2 = biological target: T2, human NTPDase2 (Homo sapiens, UniProt Q9Y5L3); assay: Malachite green assay, human NTPDase2; format: biochemical; details: 100 µM ATP, COS-7 membrane preparation; for inhibition at 2 µM: 2 μM compound, read-out: % inhibition at 2 μM concentration, NTPDase2; for IC50: read-out: IC50 ± SEM, NTPDase2
T2 construct: expressed in transfected cells; host or cells: COS-7 cells (membrane preparation)
T2 sequence (Q9Y5L3 1-495): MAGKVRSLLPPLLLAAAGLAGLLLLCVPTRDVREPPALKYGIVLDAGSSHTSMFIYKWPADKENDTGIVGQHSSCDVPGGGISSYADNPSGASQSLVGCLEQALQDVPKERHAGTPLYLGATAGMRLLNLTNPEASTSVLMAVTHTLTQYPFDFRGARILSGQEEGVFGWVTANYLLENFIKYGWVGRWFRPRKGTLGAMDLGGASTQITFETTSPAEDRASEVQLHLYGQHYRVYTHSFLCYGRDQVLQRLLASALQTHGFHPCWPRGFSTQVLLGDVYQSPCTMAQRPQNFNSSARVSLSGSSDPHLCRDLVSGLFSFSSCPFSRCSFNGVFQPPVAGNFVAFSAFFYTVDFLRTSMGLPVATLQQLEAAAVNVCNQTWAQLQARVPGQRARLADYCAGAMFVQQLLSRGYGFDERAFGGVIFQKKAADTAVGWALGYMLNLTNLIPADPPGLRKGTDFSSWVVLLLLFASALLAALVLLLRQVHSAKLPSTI
Protocol: as §1, §2

human NTPDase3 = biological target: T3, human NTPDase3 (Homo sapiens, UniProt O75355); assay: Malachite green assay, human NTPDase3; format: biochemical; details: 2 μM compound; 100 µM ATP; COS-7 membrane preparation; read-out: % inhibition at 2 μM concentration, NTPDase3
T3 construct: expressed in transfected cells; host or cells: COS-7 cells (membrane preparation)
T3 sequence (O75355 1-529): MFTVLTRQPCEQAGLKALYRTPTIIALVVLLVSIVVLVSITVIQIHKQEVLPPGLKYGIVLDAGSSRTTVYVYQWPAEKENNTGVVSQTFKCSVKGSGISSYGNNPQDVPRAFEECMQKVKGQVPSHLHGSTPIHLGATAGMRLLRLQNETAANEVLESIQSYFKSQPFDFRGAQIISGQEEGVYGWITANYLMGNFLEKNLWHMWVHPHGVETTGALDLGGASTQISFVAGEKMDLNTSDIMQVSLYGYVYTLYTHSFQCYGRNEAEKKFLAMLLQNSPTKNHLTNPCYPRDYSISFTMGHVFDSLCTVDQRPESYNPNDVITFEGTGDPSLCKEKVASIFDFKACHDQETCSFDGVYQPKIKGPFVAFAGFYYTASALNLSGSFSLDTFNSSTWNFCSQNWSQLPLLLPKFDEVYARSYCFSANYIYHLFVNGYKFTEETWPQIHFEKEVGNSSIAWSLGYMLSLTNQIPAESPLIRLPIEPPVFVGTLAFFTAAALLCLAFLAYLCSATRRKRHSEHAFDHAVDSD
Protocol: as §1, §2

human NTPDase8 = biological target: T4, human NTPDase8 (Homo sapiens, UniProt Q5MY95); assay: Malachite green assay, human NTPDase8; format: biochemical; details: 2 μM compound; 100 µM ATP; COS-7 membrane preparation; read-out: % inhibition at 2 μM concentration, NTPDase8
T4 construct: expressed in transfected cells; host or cells: COS-7 cells (membrane preparation)
T4 sequence (Q5MY95 1-495): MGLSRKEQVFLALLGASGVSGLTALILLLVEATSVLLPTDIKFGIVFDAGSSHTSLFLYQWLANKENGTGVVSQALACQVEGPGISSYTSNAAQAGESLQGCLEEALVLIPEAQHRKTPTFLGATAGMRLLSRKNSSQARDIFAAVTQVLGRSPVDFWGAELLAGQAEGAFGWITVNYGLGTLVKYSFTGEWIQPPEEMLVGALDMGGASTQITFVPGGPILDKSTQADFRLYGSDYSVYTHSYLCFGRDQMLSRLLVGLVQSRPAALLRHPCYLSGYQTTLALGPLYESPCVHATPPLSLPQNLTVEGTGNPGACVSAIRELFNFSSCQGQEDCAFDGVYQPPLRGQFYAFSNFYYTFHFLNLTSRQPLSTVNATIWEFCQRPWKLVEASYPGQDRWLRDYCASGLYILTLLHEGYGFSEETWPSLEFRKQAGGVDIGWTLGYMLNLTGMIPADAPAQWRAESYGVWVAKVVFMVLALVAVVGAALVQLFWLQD
Protocol: as §1, §2

SMILES	inhibition at 2 µM (human NTPDase1) [%]	inhibition at 2 µM (human NTPDase2) [%]	inhibition at 2 µM (human NTPDase3) [%]	inhibition at 2 µM (human NTPDase8) [%]	melting point [°C]	IC50 (human NTPDase2) [nM]
Nc1c(S(=O)(=O)[O-])cc(Nc2ccc(O)cc2F)c2c1C(=O)c1ccccc1C2=O.[Na+] [Compound 37, Sodium 1-amino-4-(2-fluoro-4-hydroxyphenylamino)-9,10-dioxo-9,10-dihydroanthracene-2-sulfonate]	-8	5	-12	-6	> 300	–
Nc1c(S(=O)(=O)[O-])cc(Nc2cccc(F)c2C(=O)O)c2c1C(=O)c1ccccc1C2=O.[Na+] [Compound 35, Sodium 1-amino-4-(2-carboxy-3-fluorophenylamino)-9,10-dioxo-9,10-dihydroanthracene-2-sulfonate]	-21	-3	32	-10	> 300	–
Nc1c(S(=O)(=O)[O-])cc(Nc2cccc(Sc3ccccc3)c2)c2c1C(=O)c1ccccc1C2=O.[Na+] [Compound 41, Sodium 1-amino-4-(3-(phenylsulfanyl)phenylamino)-9,10-dioxo-9,10-dihydroanthracene-2-sulfonate]	1	–	10	6	> 300	984 ± 327
O=C1c2ccccc2C(=O)c2c(Nc3cccc(F)c3)cc(S(=O)(=O)O)cc21 [Compound 57, 4-(3-Fluorophenylamino)-9,10-dioxo-9,10-dihydroanthracene-2-sulfonic acid]	14	-6	9	-1	> 300	–
Nc1c(S(=O)(=O)[O-])cc(Nc2ccccc2CO)c2c1C(=O)c1ccccc1C2=O.[Na+] [Compound 27, Sodium 1-amino-4-(2-(hydroxymethyl)phenylamino)-9,10-dioxo-9,10-dihydroanthracene-2-sulfonate]	-1	12	11	4	> 300	–
Nc1c(S(=O)(=O)[O-])cc(Nc2ccc(CO)cc2)c2c1C(=O)c1ccccc1C2=O.[Na+] [Compound 29, Sodium 1-amino-4-(4-(hydroxymethyl)phenylamino)-9,10-dioxo-9,10-dihydroanthracene-2-sulfonate]	-4	5	-3	-4	> 300	–
Nc1c(S(=O)(=O)[O-])cc(Nc2cccc(CO)c2)c2c1C(=O)c1ccccc1C2=O.[Na+] [Compound 28, Sodium 1-amino-4-(3-(hydroxymethyl)phenylamino)-9,10-dioxo-9,10-dihydroanthracene-2-sulfonate]	-2	7	-9	1	> 300	–
CCc1cccc(Nc2cc(Br)c(N)c3c2C(=O)c2ccccc2C3=O)c1 [Compound 53, 1-Amino-2-bromo-4-(3-ethylphenylamino)anthracene-9,10-dione]	-4	5	-2	-4	229 to 230	–
Nc1c(S(=O)(=O)[O-])cc(Nc2cccc(Cl)c2Cl)c2c1C(=O)c1ccccc1C2=O.[Na+] [Compound 34, Sodium 1-amino-4-(2,3-dichlorophenylamino)-9,10-dioxo-9,10-dihydroanthracene-2-sulfonate]	1	16	-2	7	> 300	–
COc1ccc(Sc2ccc(Nc3cc(S(=O)(=O)[O-])c(N)c4c3C(=O)c3ccccc3C4=O)cc2)cc1.[Na+] [Compound 47, Sodium 1-amino-4-[4-(4-methoxyphenylthio)phenylamino]-9,10-dioxo-9,10-dihydroanthracene-2-sulfonate]	34	–	16	4	> 300	951 ± 225
